Test results published in US20230143612A1 (Arbutus Biopharma Corporation, priority 2020, published 2023).

Target: PD-L1 His protein / PD-1 Fc protein (Homo sapiens, UniProt Q9NZQ7)
Experiment: HTRF Assay (PD-1/PD-L1 interaction)
Assay type: binding
Conditions: PD-L1 His 6 nM, PD-1 Fc 6 nM
Summary of the method: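 HTRF: PD-L1 His (6 nM final), compound (3-fold dilutions, 20 μM to 0.001 μM final) and PD-1 Fc (6 nM final) preincubated 15 min at room temperature. Anti-human IgG-XL665 and anti-6HIS Tb cryptate (mixed at 6.7 nM and 0.35 nM) then added for 1 h at room temperature before reading.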

Chain of PD-L1 His protein / PD-1 Fc protein (Q9NZQ7 19-238 limits assumed): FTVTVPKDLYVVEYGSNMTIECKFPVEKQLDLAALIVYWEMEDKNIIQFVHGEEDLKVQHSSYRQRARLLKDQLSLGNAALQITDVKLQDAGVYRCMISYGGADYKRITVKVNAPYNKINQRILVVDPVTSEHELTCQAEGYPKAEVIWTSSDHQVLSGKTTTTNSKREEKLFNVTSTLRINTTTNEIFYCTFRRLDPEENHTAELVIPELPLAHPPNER

COc1nc(-c2cccc(-c3cccc(-c4cc5c(=O)n(C)c(CNC[C@H]6CNC(=O)C6)nn5c4)c3Cl)c2Cl)ccc1CNC[C@@H]1CCC(=O)N1 [Example 476, 6-[2-Chloro-3-[2-chloro-3-[6-methoxy-5-[[[(2S)-5-oxopyrrolidin-2-yl]methylamino]methyl]-2-pyridyl]phenyl]phenyl]-3-methyl-2-[[[(3S)-5-oxopyrrolidin-3-yl]methylamino]methyl]pyrrolo[2,1-f][1,2,4]triazin-4-one]
IC50: 33 nM

COc1nc(-c2cccc(-c3cccc(-c4cc5c(=O)n(C)c(CNC(C)C)nn5c4)c3Cl)c2Cl)ccc1CNC[C@@H]1CCC(=O)N1 [Example 477, 6-[2-Chloro-3-[2-chloro-3-[6-methoxy-5-[[[(2S)-5-oxopyrrolidin-2-yl]methylamino]methyl]-2-pyridyl]phenyl]phenyl]-2-[(isopropylamino)methyl]-3-methyl-pyrrolo[2,1-f][1,2,4]triazin-4-one]
IC50: 17 nM

COc1nc(-c2cccc(-c3cccc(-c4cc5c(=O)n(C)c(CNCC(C)(C)O)nn5c4)c3Cl)c2Cl)cc(Cl)c1CNC[C@@H]1CCC(=O)N1 [Example 478, (S)-6-(2,2′-Dichloro-3′-(4-chloro-6-methoxy-5-((((5-oxopyrrolidin-2-yl)methyl)amino)methyl)pyridin-2-yl)-[1,1′-biphenyl]-3-yl)-2-(((2-hydroxy-2-methylpropyl)amino)methyl)-3-methylpyrrolo[2,1-f][1,2,4]triazin-4(3H)-one]
IC50: 29 nM

COc1nc(-c2cccc(-c3cccc(-c4cc5c(=O)n(C)c(CNC(C)(C)C)nn5c4)c3Cl)c2Cl)ccc1CNC[C@@H]1CCC(=O)N1 [Example 479, 2-[(tert-Butylamino)methyl]-6-[2-chloro-3-[2-chloro-3-[6-methoxy-5-[[[(2S)-5-oxopyrrolidin-2-yl]methylamino]methyl]-2-pyridyl]phenyl]phenyl]-3-methyl-pyrrolo[2,1-f][1,2,4]triazin-4-one]
IC50: 14 nM

COc1nc(-c2cccc(-c3cccc(-c4cc5c(=O)n(C)c(CNC[C@@H](O)CC(=O)N(C)C)nn5c4)c3Cl)c2Cl)ccc1CNC[C@@H]1CCC(=O)N1 [Example 481, (S)-4-(((6-(2,2′-Dichloro-3′-(6-methoxy-5-(((((S)-5-oxopyrrolidin-2-yl)methyl)amino)methyl)pyridin-2-yl)-[1,1′-biphenyl]-3-yl)-3-methyl-4-oxo-3,4-dihydropyrrolo[2,1-f][1,2,4]triazin-2-yl)methyl)amino)-3-hydroxy-N,N-dimethylbutanamide]
IC50: 42 nM

COC(=O)CNCc1nn2cc(-c3cccc(-c4cccc(-c5ccc(CNC[C@@H]6CCC(=O)N6)c(OC)n5)c4Cl)c3Cl)cc2c(=O)n1C [Example 482, Methyl 2-[[6-[2-chloro-3-[2-chloro-3-[6-methoxy-5-[[[(2S)-5-oxopyrrolidin-2-yl]methylamino]methyl]-2-pyridyl]phenyl]phenyl]-3-methyl-4-oxo-pyrrolo[2,1-f][1,2,4]triazin-2-yl]methylamino]acetate]
IC50: 28 nM

COc1nc(-c2cccc(-c3cccc(N4Cc5ccc(CNC[C@@H]6CCC(=O)N6)cc5C4=O)c3Cl)c2Cl)ccc1CNC[C@@H]1CCC(=O)N1 [Example 483, 2-(2,2′-Dichloro-3′-(6-methoxy-5-(((((S)-5-oxopyrrolidin-2-yl)methyl)amino)methyl)pyridin-2-yl)-[1,1′-biphenyl]-3-yl)-6-(((((S)-5-oxopyrrolidin-2-yl)methyl)amino)methyl)isoindolin-1-one]
IC50: 0.1 nM

COc1cc(-c2cccc(-c3cccc(-c4ccc(CNC[C@@H]5CCC(=O)N5)c(OC)n4)c3Cl)c2Cl)cc2c1CN(CCC1(O)CCC1)CC2 [Example 484, (S)-5-((((6-(2,2′-Dichloro-3′-(2-(2-(1-hydroxycyclobutyl)ethyl)-8-methoxy-1,2,3,4-tetrahydroisoquinolin-6-yl)-[1,1′-biphenyl]-3-yl)-2-methoxypyridin-3-yl)methyl)amino)methyl)pyrrolidin-2-one]
IC50: 0.3 nM

COc1cc(-c2cccc(-c3cccc(-c4ccc(CNC[C@@H]5CCC(=O)N5)c(OC)n4)c3Cl)c2Cl)cc2c1CN(CCC(C)(C)O)CC2 [Example 485, (S)-5-((((6-(2,2′-Dichloro-3′-(2-(3-hydroxy-3-methylbutyl)-8-methoxy-1,2,3,4-tetrahydroisoquinolin-6-yl)-[1,1′-biphenyl]-3-yl)-2-methoxypyridin-3-yl)methyl)amino)methyl)pyrrolidin-2-one]
IC50: 0.1 nM

COc1nc(-c2cccc(-c3cccc(-c4cc5c(=O)n(C)c(CN[C@H]6CC[C@H](O)CC6)nn5c4)c3Cl)c2Cl)ccc1CNC[C@@H]1CCC(=O)N1 [Example 486, 6-[2-Chloro-3-[2-chloro-3-[6-methoxy-5-[[[(2S)-5-oxopyrrolidin-2-yl]methylamino]methyl]-2-pyridyl]phenyl]phenyl]-2-[[(4-hydroxycyclohexyl)amino]methyl]-3-methyl-pyrrolo[2,1-f][1,2,4]triazin-4-one]
IC50: 0.4 nM

COc1nc(-c2cccc(-c3cccc(-c4cc5c(=O)n(C)c(CNCC(=O)O)nn5c4)c3Cl)c2Cl)ccc1CNC[C@@H]1CCC(=O)N1 [Example 487, 2-[[6-[2-Chloro-3-[2-chloro-3-[6-methoxy-5-[[[(2S)-5-oxopyrrolidin-2-yl]methylamino]methyl]-2-pyridyl]phenyl]phenyl]-3-methyl-4-oxo-pyrrolo[2,1-f][1,2,4]triazin-2-yl]methylamino]acetic acid]
IC50: 0.1 nM

COc1cc(-c2cccc(-c3cccc(-c4ccc(CNC[C@@H]5CCC(=O)N5)c(OC)n4)c3Cl)c2Cl)cc2c1CN(CC(O)C(C)C)CC2 (stereo partly drawn) [Example 488, (5S)-5-((((6-(2,2′-Dichloro-3′-(2-(2-hydroxy-3-methylbutyl)-8-methoxy-1,2,3,4-tetrahydroisoquinolin-6-yl)-[1,1′-biphenyl]-3-yl)-2-methoxypyridin-3-yl)methyl)amino)methyl)pyrrolidin-2-one]
IC50: 0.2 nM

COC(=O)C[C@H](O)CNCc1nn2cc(-c3cccc(-c4cccc(-c5ccc(CNC[C@@H]6CCC(=O)N6)c(OC)n5)c4Cl)c3Cl)cc2c(=O)n1C [Example 489, Methyl (3S)-4-[[6-[2-chloro-3-[2-chloro-3-[6-methoxy-5-[[[(2S)-5-oxopyrrolidin-2-yl]methylamino]methyl]-2-pyridyl]phenyl]phenyl]-3-methyl-4-oxo-pyrrolo[2,1-f][1,2,4]triazin-2-yl]methylamino]-3-hydroxy-butanoate]
IC50: 1500 nM

COc1nc(-c2cccc(-c3cccc(-c4cc5c(=O)n(C)c(CNCCCF)nn5c4)c3Cl)c2Cl)cc(Cl)c1CNC[C@@H]1CCC(=O)N1 [Example 490, (S)-6-(2,2′-Dichloro-3′-(4-chloro-6-methoxy-5-((((5-oxopyrrolidin-2-yl)methyl)amino)methyl)pyridin-2-yl)-[1,1′-biphenyl]-3-yl)-2-(((3-fluoropropyl)amino)methyl)-3-methylpyrrolo[2,1-f][1,2,4]triazin-4(3H)-one]
IC50: 0.1 nM

COc1nc(-c2cccc(-c3cccc(-c4cc5c(=O)n(C)c(CNCCO)nn5c4)c3Cl)c2Cl)cc(Cl)c1CNC[C@@H]1CCC(=O)N1 [Example 491, (S)-6-(2,2′-Dichloro-3′-(4-chloro-6-methoxy-5-((((5-oxopyrrolidin-2-yl)methyl)amino)methyl)pyridin-2-yl)-[1,1′-biphenyl]-3-yl)-2-(((2-hydroxyethyl)amino)methyl)-3-methylpyrrolo[2,1-f][1,2,4]triazin-4(3H)-one]
IC50: 0.7 nM
